{"source": "patent US20140213559A1", "about": "“COMPOSITIONS AND TREATMENTS FOR DYSTROPHIES” (MD PHARMA AB, priority 2011, published 2014)", "format_in_all_cases": "in vivo, mouse", "key": {"dy3K/dy3K mice [1]": {"system": "dy3K/dy3K mice", "assay": "Histology, immunofluorescence and morphometric analysis of muscle after systemic 3-MA injection", "experimental": "Systemic administration was performed by intraperitoneal injection of 3-MA (15 mg/kg) into dy3K/dy3K mice and control littermates at the age of 2.5 weeks and 3.5 weeks. […] Prior to the euthanasia, an exploratory locomotion test was performed.\nQuadriceps and tibialis anterior muscles from wild-type, dy3K/dy3K and injected mice (n=6 for each group) were rapidly dissected after euthanasia and frozen in OCT (Tissue Tek) in liquid nitrogen. Serial sections of […] were either stained with hematoxylin and eosin or processed for immunofluorescence experiments following standard procedures (20) with rabbit polyclonal antibodies directed against LC3B (1/100, #3868, Cell Signaling Technology), laminin γ1 chain (1/1000, #1083), laminin α4 chain (1/400, #1100) and […] (1/400, #1117) generously provided by Dr. T. Sasaki, rat monoclonal antibodies against laminin γ1 chain (1/200, MAB 1914, Chemicon) and tenascin-C (undiluted, MTn15), goat polyclonal antibody against collagen III (1/100, #1330, SouthernBiotech) and mouse monoclonal antibodies against caspase-3 (1/100, CPP32, BD Transduction Laboratory), embryonic myosin heavy chain (F1.652, Developmental Studies Hybridoma Bank) and MyoD (1/100, clone 5.8A Dako). For apoptotic myofiber detection, a TUNEL detection kit was used following instructions of the manufacturer (GenScript). Sections were analyzed using a Zeiss Axioplan fluorescence microscope. Images were captured using an ORCA 1394 ER digital camera with the Openlab 3 software.\nMeasurements were performed on whole quadriceps or tibialis anterior muscle sections from untreated wild-type and dy3K/dy3K, wild-type and dy3K/dy3K 3-MA injected animals (n=6 for each group). Tenascin-C and collagen III positive areas, eMHC positive fibers, caspase-3 positive fibers, TUNEL-positive myonuclei and fiber diameters were measured using the imageJ software. Minimal Feret's diameter was measured (41) for at least 1500 fibers for each mouse. The same number of fibers was used for quantification of fibers with centrally located nuclei. Wet quadriceps muscle weights were determined from 7 uninjected wild-type or dy3K/dy3K and 3-MA treated wild-type (n=4) and dy3K/dy3K (n=6) animals and correlated to body weight."}, "dy3K/dy3K mice [2]": {"system": "dy3K/dy3K mice", "assay": "Peripheral neuropathy / hind leg paralysis observation", "conditions": "3-MA treated dy3K/dy3K mice", "experimental": "(§1) Systemic administration was performed by intraperitoneal injection of 3-MA (15 mg/kg) into dy3K/dy3K mice and control littermates at the age of 2.5 weeks and 3.5 weeks. Mice were sacrificed 14 days after injection and quadriceps and tibialis anterior muscles were processed for morphometric analysis, immunofluorescence experiments, qRT-PCR or Western blot analysis. Prior to the euthanasia, an exploratory locomotion test was performed."}, "dy3K/dy3K mice [3]": {"system": "dy3K/dy3K mice", "assay": "Survival curves", "conditions": "two systemic injections of 3-MA, 22 days for non-treated", "experimental": "as §1\nDeath was monitored in 3-MA injected dy3K/dy3K mice (n=9). A survival curve was constructed using the GraphPad Prism 4 software."}, "dy3K/dy3K mice [4]": {"system": "dy3K/dy3K mice", "assay": "Body weight measurement", "conditions": "3-MA treated vs non-injected dy3K/dy3K mice, 4-week-old", "experimental": "as §1"}, "wild-type mice": {"system": "wild-type mice", "assay": "Hind leg paralysis observation in injected wild-type mice", "conditions": "3-MA injected wild-type mice", "experimental": "as §1"}, "dy3K/dy3K mice [5]": {"system": "dy3K/dy3K mice", "assay": "Exploratory locomotion, open field test", "conditions": "3-MA injected dy3K/dy3K mice, 14 days after injection, 5 min", "experimental": "as §1\nExploratory locomotion was examined in an open field test. In each experiment, the mouse 14 days after 3-MA injection (n=11 for dy3K/dy3K and wild-type, respectively) was placed into a new cage and allowed to explore the cage for 5 min. The time that the mouse spent moving around was measured manually."}, "Akt": {"system": "Akt", "assay": "Akt phosphorylation in quadriceps muscle, Western blot", "conditions": "dy3K/dy3K quadriceps", "experimental": "as §1\nIsolated quadriceps muscles were obtained from 6 wild-type, 6 dy3K/dy3K mice (3.5 weeks of age) and 6 dy3K/dy3K mice 48 h or 14 days after 3-MA injection. Each sample was immediately frozen in liquid nitrogen and reduced to powder using a mortar. Protein extracts were obtained as previously described (16). A total of […] of denaturated protein was loaded on 10-20% acrylamide SDS-gels (Clearpage, CBS Scientific) and blotted onto nitrocellulose membranes (Hybond-C, Amersham) during 1.5 hour (Biorad). The membranes were blocked for one hour at RT in PBS, 0.01% Tween-20, 5% milk and incubated overnight at 4° C. with rabbit polyclonal antibodies directed against pAkt (Ser 473, 1/2000, #4060 or Thr 308, 1/1000, #2965, Cell Signaling Technology), Akt (1/1000, #4685, Cell Signaling Technology), Vps34 (1/200, V9764, Sigma) or LC3B (1/250, #2775, Cell Signaling Technology). […]"}, "[6]": {"system": "autophagy-related genes (LC3B, Cathepsin L, Lamp2a, Gabarapl1, Atg4b, Vps34, Beclin)", "assay": "Expression of autophagy-related genes in quadriceps muscle after systemic 3-MA injection (qRT-PCR, Western blot, immunofluorescence)", "conditions": "dy3K/dy3K mice, 3-MA 15 mg/kg intraperitoneal at 2.5 and 3.5 weeks, 14 days post-injection", "experimental": "as §1\nTotal RNA was extracted from 10 mg quadriceps muscle of 6 dy3K/dy3K mice (3.5-week-old) and 6 WT littermates and 5 WT and 5 dy3K/dy3K mice treated with 3-MA using RNeasy mini kit (Qiagen) including an initial step of proteinase K digestion (Fermentas, 240 ng/μl). […] Quantitative PCRs were performed in triplicate with the Maxima SYBR Green qPCR Master Mix (Fermentas). Expression of target and reference genes was monitored using a real-time qRT-PCR method (Light Cycler, Roche) with the previously described primers for the autophagic genes LC3B, Cathepsin L, Lamp2a, Gabarapl1, Atg4b, Vps34 and Beclin (8). The amplification efficiency for each primer pair was evaluated by amplification of serially diluted template cDNAs ([…]). Efficiency corrected RNA levels (in arbitrary units) were calculated by using the formula E^−Ct. Expression levels were then calculated relative to the endogenous control gene GAPDH and relative to wild-type quadriceps. […]"}, "[7]": {"conditions": "3-MA injected dy3K/dy3K mice, quadriceps"}, "[8]": {"conditions": "3-MA injected vs non-injected dy3K/dy3K mice, quadriceps, 14 days post-injection"}, "[9]": {"conditions": "3-MA treated dy3K/dy3K mice, quadriceps, 14 days"}}, "data": [{"smiles": "Cn1cnc(N)c2ncnc1-2", "note": "[3-MA, 3-methyladenine]", "values": [{"measurement": "amount of MyoD1 positive nuclei", "setting": "dy3K/dy3K mice [1]; [7]", "value": "increased"}, {"measurement": "number of cells with centrally located nuclei", "setting": "dy3K/dy3K mice [1]; [7]", "value": "slightly but significantly elevated"}, {"measurement": "proportion of fibers expressing eMHC", "setting": "dy3K/dy3K mice [1]; [7]", "value": "significantly increased"}, {"measurement": "ratio of quadriceps muscle wet weight per body weight", "setting": "dy3K/dy3K mice [1]; 3-MA injected vs age-matched non-injected dy3K/dy3K mice", "value": "normalized"}, {"measurement": "Collagen III expression (fibrosis)", "setting": "dy3K/dy3K mice [1]; [8]", "value": "reduced"}, {"measurement": "tenascin-C expression (fibrosis)", "setting": "dy3K/dy3K mice [1]; [8]", "value": "reduced"}, {"measurement": "proportion of TUNEL-positive myonuclei", "setting": "dy3K/dy3K mice [1]; 3-MA treated dy3K/dy3K animals, quadriceps", "value": "significantly reduced"}, {"measurement": "expression of laminin 132 chain", "setting": "dy3K/dy3K mice [1]; [9]", "value": "near normal"}, {"measurement": "expression of laminin α4 chain", "setting": "dy3K/dy3K mice [1]; [9]", "value": "near normal"}, {"measurement": "muscle morphology", "setting": "dy3K/dy3K mice [1]; dy3K/dy3K mice, 3-MA 15 mg/kg intraperitoneal at 2.5 and 3.5 weeks, 14 days post-injection", "value": "considerably improved muscle morphology"}, {"measurement": "caspase-3 positive fibers", "setting": "dy3K/dy3K mice [1]; dy3K/dy3K mice, forty-eight hours after 3-MA injection", "value": "same proportion as in non-injected dy3K/dy3K mice"}, {"measurement": "proportion of caspase 3 positive fibers", "setting": "dy3K/dy3K mice [1]; dy3K/dy3K quadriceps, 14 days after injection", "value": "significantly decreased"}, {"measurement": "average fibre diameter", "setting": "dy3K/dy3K mice [1]; quadriceps, dy3K/dy3K mice upon 3-MA injection", "value": "increased"}, {"measurement": "fibre size distribution in quadriceps muscle", "setting": "dy3K/dy3K mice [1]; wild-type and dy3K/dy3K injected animals", "value": "significantly shifted towards larger fibres"}, {"measurement": "pathology of the peripheral nerve", "setting": "dy3K/dy3K mice [2]", "value": "did not appreciably improve"}, {"measurement": "hind leg paralysis", "setting": "dy3K/dy3K mice [2]; similar in non-treated dy3K/dy3K mice", "value": "transient hind leg paralysis often occurred in one leg"}, {"measurement": "median survival", "setting": "dy3K/dy3K mice [3]", "value": 37, "unit": "days"}, {"measurement": "body weight", "setting": "dy3K/dy3K mice [4]", "value": "weighed significantly more"}, {"measurement": "hind leg paralysis", "setting": "wild-type mice", "value": "not in 3-MA injected wild-type mice"}, {"measurement": "activity in an open field test (exploratory locomotion)", "setting": "dy3K/dy3K mice [5]", "value": "same level of activity as wild-type animals"}, {"measurement": "Akt phosphorylation on threonine 308 and serine 473", "setting": "Akt; 48 h after injection", "value": "restored to wild-type levels"}, {"measurement": "Akt phosphorylation on threonine 308 and serine 473", "setting": "Akt; 14 days after injection", "value": "restored to wild-type levels"}, {"measurement": "expression of the autophagy-related genes", "setting": "[6]", "value": "restored the expression of the autophagy-related genes to the basal level"}]}]}
